Test results published in ChEMBL document CHEMBL1201862, “PubChem BioAssay data set” (2004).
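Cultured in 96-well plates, cells were exposed to test compound for 48 hours across five concentrations. GI50: concentration for 50% inhibition of growth.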 Activity calls are given as the source filed them. Rule as the data show it: active = GI50 up to about 1.1 µM and inactive = higher. *1 amine or outer side, *2 acyl side, *3 side chain or, on linkers, in order; H or OH if unused. Where a SMILES comes first, the peptide text is derived from it. Bridges are numbered along the chain shown (N, C = ends). [ ]: non-standard residue; d: D form. The star is where a group is joined. X56 = CC(C)C(C)C(C(=O)[*:2])N(C)[*:1]; Picolinoyl(3-OH) = O=C(c1ncccc1O)*; NMePhg = CN[CH](C(=O)O)c1ccccc1; Hyp = O=C(O)[CH]1C[CH](O)CN1; Sar = CNCC(=O)O

Columns and labels:
Experiment in all cases: NCI anticancer screen, dose series, 48 h
SF-295 = system: SF-295
HCT-116 = system: HCT-116
EKVX = system: EKVX
HCT-15 = system: HCT-15
HCC 2998 = system: HCC 2998
IGROV-1 = system: IGROV-1
Malme-3M = system: Malme-3M
SK-MEL-28 = system: SK-MEL-28
SK-MEL-2 = system: SK-MEL-2
OVCAR-4 = system: OVCAR-4
MOLT-4 = system: MOLT-4
RPMI-8226 = system: RPMI-8226
UACC-62 = system: UACC-62
NCI-H23 = system: NCI-H23
NCI-H460 = system: NCI-H460
SF-539 = system: SF-539
RXF 393 = system: RXF 393
HOP-92 = system: HOP-92
ACHN = system: ACHN
TK-10 = system: TK-10

Structure (SMILES) | GI50 (SF-295) | GI50 (HCT-116) | GI50 (EKVX) | GI50 (HCT-15) [µM] | GI50 (HCC 2998) | GI50 (IGROV-1) | GI50 (Malme-3M) | GI50 (SK-MEL-28) | GI50 (SK-MEL-2) | GI50 (OVCAR-4) | GI50 (MOLT-4) | GI50 (RPMI-8226) | GI50 (UACC-62) | GI50 (NCI-H23) | GI50 (NCI-H460) | GI50 (SF-539) | GI50 (RXF 393) | GI50 (HOP-92) | GI50 (ACHN) | GI50 (TK-10)
CC(C)CC1NC(=O)C(NC(=O)c2ncccc2O)C(C)OC(=O)C(c2ccccc2)N(C)C(=O)C(C)NC(=O)C(C(C)C(C)C)N(C)C(=O)CN(C)C(=O)C2CC(O)CN2C1=O (stereo not drawn) ({Picolinoyl(3-OH)}-TL[Hyp][Sar][X56]A[NMePhg]; ester 1-C; configuration not given here) | 85.7 µM (inactive) | 26.9 µM (inactive) | 10.1 µM (inactive) | 105 | 78.7 µM (inactive) | 23.8 µM (inactive) | 55.5 µM (inactive) | 102 µM (inactive) | 38.7 µM (inactive) | 66.5 µM (inactive) | 43.2 µM (inactive) | 35.8 µM (inactive) | 45.1 µM (inactive) | 58.6 µM (inactive) | 12.3 µM (inactive) | 74.5 µM (inactive) | > 125 µM (inactive) | 74.1 µM (inactive) |  | 
CCCCC#CS(=O)(=O)C(F)(F)F | 20.3 µM (inactive) | 36 µM (inactive) | > 100 µM (inactive) | 90.4 | > 31.6 µM (inactive) | > 100 µM (inactive) | > 100 µM (inactive) | > 60 µM (inactive) | > 36.8 µM (inactive) | 27.9 µM (inactive) | 33.1 µM (inactive) | 47.4 µM (inactive) | 48.2 µM (inactive) | 58.6 µM (inactive) | > 92.5 µM (inactive) | > 100 µM (inactive) | 20.4 µM (inactive) | 34.1 µM (inactive) |  | 
COc1ccc(C2=NN(C(=O)c3cccnc3)C(O)(c3cc(F)c(Cl)cc3Cl)C2)cc1OC (stereo not drawn) | 15.5 µM (inactive) | 14.8 µM (inactive) | 19.6 µM (inactive) | 14.8 |  | 8.11 µM (inactive) | 22.6 µM (inactive) | 19.5 µM (inactive) | 14.8 µM (inactive) | 15.6 µM (inactive) | 8.97 µM (inactive) | 13.4 µM (inactive) |  | 20.4 µM (inactive) | 15.2 µM (inactive) | 16.1 µM (inactive) | 15.5 µM (inactive) | 14.1 µM (inactive) | 21.3 µM (inactive) | 30.4 µM (inactive)
O=C1/C(=C/c2ccc(Cl)cc2)N=C(c2ccccc2)N1/N=C/c1ccccc1O | 11.9 µM (inactive) | 2.44 µM (inactive) | 4.66 µM (inactive) | 30.9 |  | 8.26 µM (inactive) | 1.98 µM (inactive) | 15.1 µM (inactive) | 17.1 µM (inactive) | 4.57 µM (inactive) | 12.6 µM (inactive) | 6.89 µM (inactive) | 13.9 µM (inactive) | > 100 µM (inactive) | 18 µM (inactive) | 10.9 µM (inactive) | 11.4 µM (inactive) | 11.5 µM (inactive) | 5.05 µM (inactive) | 1.68 µM (inactive)
CC1(C)CCCOc2cccc(c2)OCCCC(C)(C)C1=O |  | 26.6 µM (inactive) | 37.3 µM (inactive) | 35.5 |  | 39.2 µM (inactive) | 27.6 µM (inactive) | 38.5 µM (inactive) | 24.9 µM (inactive) | 27.5 µM (inactive) | 12.8 µM (inactive) | 26.7 µM (inactive) | 19.1 µM (inactive) | 31.8 µM (inactive) | 25.1 µM (inactive) | 86.5 µM (inactive) | 17.7 µM (inactive) | 23 µM (inactive) | 36.8 µM (inactive) | > 100 µM (inactive)
CCCSCC(P(=O)(O)O)P(=O)(O)O.NC1CCCCC1 | > 100 µM (inactive) | > 100 µM (inactive) | > 100 µM (inactive) | > 100 | > 100 µM (inactive) | > 100 µM (inactive) | > 100 µM (inactive) | > 100 µM (inactive) | > 100 µM (inactive) | > 100 µM (inactive) | > 100 µM (inactive) | > 100 µM (inactive) | > 100 µM (inactive) | > 100 µM (inactive) | > 100 µM (inactive) | > 100 µM (inactive) | > 100 µM (inactive) | > 100 µM (inactive) |  | 
COC(=O)[C@@H](Nc1ccccc1)[C@@]1(C(=O)OC)SC12c1ccccc1-c1ccccc12 | > 100 µM (inactive) | 12.8 µM (inactive) | 61.8 µM (inactive) | 23.9 | > 100 µM (inactive) | > 100 µM (inactive) | 49.7 µM (inactive) | > 100 µM (inactive) | 74.6 µM (inactive) | 69.2 µM (inactive) | 24.4 µM (inactive) | 25.8 µM (inactive) | 45.2 µM (inactive) | > 100 µM (inactive) |  | 45.8 µM (inactive) | 71.3 µM (inactive) | 9.29 µM (inactive) | > 100 µM (inactive) | > 100 µM (inactive)
COC(=O)c1nc(-c2ccc3c(n2)C(=O)C(=N)C(OC)=C3O)c(N)c(-c2ccc(OC)c(OC)c2O)c1C | 0.449 µM (active) | 0.738 µM (active) | 2.57 µM (inactive) | 1.13 | 0.128 µM (active) | 1.7 µM (inactive) | 0.524 µM (active) | 1.33 µM (inactive) | 1.47 µM (inactive) | 1.66 µM (inactive) | 2.04 µM (inactive) | 1.21 µM (inactive) | 0.29 µM (active) | 0.217 µM (active) | < 0.01 µM (active) | 0.363 µM (active) | 1.58 µM (inactive) | 2.16 µM (inactive) |  | 
COc1ccc(CC2Cc3ccccc3CCN2)cc1OC (stereo not drawn) | > 50 µM (inactive) | 20.9 µM (inactive) | 26.2 µM (inactive) | > 50 | > 50 µM (inactive) | 23.9 µM (inactive) | 25.5 µM (inactive) | 19.3 µM (inactive) | > 50 µM (inactive) | > 50 µM (inactive) | 20.3 µM (inactive) | 18.3 µM (inactive) | > 50 µM (inactive) | > 50 µM (inactive) | 37.4 µM (inactive) | 37.8 µM (inactive) | 12 µM (inactive) | 17.9 µM (inactive) |  | 
CC[C@@]1(N(C)C)C(=O)OCc2c1cc1n(c2=O)Cc2cc3ccccc3nc2-1 | 16.1 µM (inactive) | 33.1 µM (inactive) | 45.9 µM (inactive) | 45.3 | 97.7 µM (inactive) |  | 20.2 µM (inactive) | > 100 µM (inactive) | 26.4 µM (inactive) | 47.1 µM (inactive) |  | 31.3 µM (inactive) | 22.1 µM (inactive) | 16.6 µM (inactive) | 12.5 µM (inactive) |  | 13.7 µM (inactive) | 19.1 µM (inactive) | 20.3 µM (inactive) | 48.2 µM (inactive)
CC(C)C1=CC23CCC4C(C)(C(=O)O)CCCC4(C)C2CC1C1C(=O)N(CCCCCCN2C(=O)C4C5CC6C7(C)CCCC(C)(C(=O)O)C7CCC6(C=C5C(C)C)C4C2=O)C(=O)C13 (stereo not drawn) |  | 8.51 µM (inactive) | 7.4 µM (inactive) | 14.8 | 12.7 µM (inactive) |  | 16.7 µM (inactive) | 11.3 µM (inactive) | 13.8 µM (inactive) | 15.7 µM (inactive) | 6.17 µM (inactive) | 13.7 µM (inactive) | 37.8 µM (inactive) | 2.74 µM (inactive) |  | > 10 µM (inactive) | 14.2 µM (inactive) | 21.7 µM (inactive) | 10.9 µM (inactive) | 16.2 µM (inactive)
